# Assay results published in US10827753B2, “Compositions and methods for controlling nematodes” (Monsanto Technology LLC, priority 2007, dated 2020).
# Marks after values point to notes of the source that are not given here.
# Tests used:
# [1] = system: Meloidogyne incognita; assay: M. incognita miniaturized greenhouse assay on cucumber seedlings (root galling); type: in vivo; design: key to 1 ppm gall ratings / 1 ppm gall rating: mean of 3 gall ratings: 0=0-5%, 1=6-20%, 2=21-50%, 3=51-100% root galled
# How it was run: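 Compound in acetone/Triton X100 stock (5 mg/mL) diluted into water with 0.015% Triton X100 and applied to sand-planted sprouted cucumber seedlings; inoculated with 500 M. incognita eggs two days after planting. Roots harvested 10–12 days later; galling scored 0–3 by % root mass galled, averaged over triplicates, plus visual root phytotoxicity rating.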
# [2] = system: Meloidogyne incognita; assay: Fall nematicidal field testing on squash microplots; type: in vivo; conditions: for RG28 = % root galls at 28 days after treatment / RG43 = % root galls at 43 days after treatment: squash
# From the text: The test site was located at 3511 Highway F in New Melle, Mo., Saint Charles county. The soil was a native prairie/pasture covering silty clay loam soil. Holes were dug using a Bobcat 763 skid loader with a 12-inch auger to a depth of 18 inches. Total volume of each hole was about 1.2 cubic feet. Six cubic yards of topsoil and 9 tons of river sand were purchased from Dardenne Farms Topsoil. Mixing to a ratio of 4 volumes sand to 1 volume soil was accomplished using a trailer-mounted 9 cubic foot concrete mixer. Holes were filled and then re-filled 5 days later after settling. The mixture was 92.5% sand, 2.5% silt, and 5% clay. Organic matter was 0.2% and pH was 6.8.
# Treatments were arranged in a block design with the blocks laid out perpendicular to the primary slope and parallel to secondary slope. There are 7 inoculated controls and 5 non-inoculated controls and the distributions of disease severity appeared independent of location.
# Application rates are expressed as kg of active material per hectare, and the mg per plot is based on the surface area of the bored and filled holes (0.000008559 Ha). The DC compounds were formulated immediately before application as follows: 1) the amount required to treat all six replicates was dissolved in 300 ml of acetone, 2) for each plot 50 ml of that solution was added to a graduated cylinder with 2 ml of 12.5% Triton X100 and the volume was raised to 500 ml with tap water. The resultant mix is the same as used in the standard greenhouse assays (10% acetone, 0.05%×100). The oxamyl treatments were prepared from Vydate 2 L formulated the same way. The 500 ml was placed in a watering can and the entire volume was evenly sprinkled over the surface of the plot. No runoff occurred and pooling, if any, was short lived. The final drench volume was 0.58 ml/cm^2, compared to 0.2 ml/cm^2 used in our greenhouse, however the microplots are much deeper so the drench volume applied per soil volume treated is roughly the same.
# Meloidogyne incognita eggs were harvested over a two week period and stored at approximately 5° C. until needed. A stock of 5.6 million vermiform eggs was adjusted to 9000/ml in 620 ml. One day after treatment, two holes were made in each plot about 7 cm apart and equidistant from the squash plants. Five ml of egg suspension was pipetted into each hole, which was then sealed and the plot lightly watered. A total of 90,000 vermiform eggs were added to each plot.
# The first root evaluation was at 28 DAT. The tops were cut off and weighed immediately in the field, and the roots were carefully dug out so as not to disturb the remaining plant.
# [3] = system: Meloidogyne incognita; assay: Summer field evaluation of pre-plant incorporated compounds on squash; type: in vivo; conditions: for 0-3 vigor 16 DAP / 0-3 vigor 21 DAP / feeder root (3 = ave) 31 DAP / gall % 31 DAP / root wgt (g) 31 DAP / top wgt (lbs) 31 DAP / total fruit (lbs): 4 kg (kg/ha) PPI, squash
# How it was run: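 PPI simulation: compound in acetone/Triton X-100 and water mixed into 80% sand/20% silt loam with chopped galled tomato roots, filling top 15 cm of 6 replicate field plots. M. incognita eggs/larvae (100 k per plot) injected 5 cm deep; three-week-old squash cv. Liberator III planted 4 days after treatment.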
# [4] = system: Heterodera glycines (SCN); assay: Seed treatment test of soybean cyst nematode on soybean plants; type: in vivo
# Method: For a given concentration the chemical is dissolved in 500 ul of acetone and one gram of cucumber seed (RKN test) or soybean seed (SCN test) is added (e.g., 20 mg active ingredient in 500 ul acetone plus 1 gram of seed). The seed solutions are agitated until all seeds were thoroughly covered with the chemical solution. The acetone is then allowed to evaporate by air drying the seeds. The seeds are planted in 2-inch pots containing sandy soil and then the pots are inoculated with 1000 Meloidogyne incognita (RKN) or 1000 Heterodera glycines (SCN) eggs per pot three days after planting. Plants are rated for galling 14 days after egg inoculation for RKN or 28 days after egg inoculation for SCN.
# [5] = system: mice; conditions: cited from earlier work
# [6] = system: sting (Belonolaimus longicaudatus) nematodes; assay: Sting nematode bench top soil assay; type: in vivo
# Method: Populations of sting (Belonolaimus longicaudatus) nematodes are maintained on St. Augustine turf grass on soil in 15-cm pots. At test initiation the turf is removed from the pots and the soil containing nematode eggs, juveniles, and adults is subdivided into pots each containing a volume of 125 cm^3′ The compounds to be tested are dissolved in 3 ml of acetone using 3, 6, or 15 mg to achieve equivalent surface area application rates of 2, 4, or 10 kg/ha, respectively. The 3 ml acetone stock solution is added to 30 ml of water, and 5 ml of that solution is used to drench each of 6 replicate test pots prepared as described above. The treated pots containing nematodes are incubated in the laboratory at ambient temperature of approximately 25° C. After 3 days the soil from each pot is washed onto a modified Baermann apparatus comprised of a screen supporting a layer of filter paper on which the soil sample is placed and set in a dish of water. The samples are then incubated at 25° C. for 24 hours to allow the live nematodes to migrate through the paper and screen and into a water reservoir to be collected for counting with a light microscope. Nematodes that have been killed or immobilized by the test compounds are not able to migrate into the reservoir.
# [7] = system: CD-1/Swiss derived albino mice; type: in vivo; conditions: 500 mg/kg oral, three female mice, observed up to 14 days
# Method: Acute oral toxicity testing was performed in mice in accordance with test method P203.UDP, as administered by Eurofins/Product Safety Laboratories (Dayton, N.J.). CD-1/Swiss derived albino mice were obtained and group housed in suspended solid bottom caging. The mice were fed rodent chow and filtered tap water was supplied ad libitum. Following acclimation to the laboratory setting, a group of animals was fasted overnight by removing food from the cages. After the fasting period, three female mice were selected based on vitality and initial body weights. The individual compound doses were calculated from these body weights.
# The test substance was prepared as a 1% (50 mg/kg) or 5% (500 mg/kg) weight to weight (w/w) mixture in a 0.5% w/w solution of carboxymethylcellulose (CMC) in distilled water. A tissue homogenizer was used to create a homogeneous mixture. A dose of 50 or 500 mg/kg was administered to three healthy mice per dose level by oral intubation using a ball-tipped gavage needle attached to a syringe. After administration, the animals were returned to their cages, and feed was replaced immediately after dosing.
# Body weights were recorded prior to initiation and on Days 7 and 14 or a soon as possible after death.
# [8] = system: root knot nematode; assay: Pre-plant incorporated (PPI) greenhouse test of root knot nematode on cucumber plants; type: in vivo, Meloidogyne incognita; conditions: Meloidogyne incognita, fourteen day pre-plant incorporated, test b, read-out: percent control (galling reduction) relative to the control blank treatment; for pest or weed control at 4000 g/ha: 4 kg/ha rate; for pest or weed control at 8000 g/ha: 8 ka/ha rate
# From the text: The PPI test examines the effect of pre-incorporation of compounds in soil and longer aging to simulate in furrow methods of nematicide application in the field. The PPI test exposes compounds to a higher volume of soil and drying which can result in more severe soil binding. Compounds are also aged for longer periods which can lead to more extensive biotic and abiotic degradation further limiting activity.
# The chemically treated soil (sandy soil mix) for all treatment days (e.g., 7 days, 14 days, 21 days) treatments is potted into their appropriate pots. On the same day the 7 day treatment pots are seeded. One week later eggs are applied and 14 days after egg application the test is harvested. The 14 day treatments are planted 7 days after the first planting. The 14 day planting and 7 day inoculation happen on the same day. One week later the 14 day treatments are inoculated with eggs. These are harvested 14 days after the inoculation. The 21 day treatments are planted 14 days after the first planting. The 14 day inoculation and 21 day planting are done on the same day. One week later the 21 day plants are inoculated with eggs. The 7 day treatment is harvested the same day as the 21 day inoculation. Fourteen days after inoculation the 21 day plants are harvested.
# For each compound a stock is prepared using 4 mg material in 4 ml of acetone. The soil is mixed by placing 80 ml of field soil and 320 ml of sand in a plastic bag and mixing well. The formulation for treatment is done by adding 2.13 ml (8 kg/ha rate), 1.06 ml (4 kg/ha rate) or 0.53 ml (2 kg/ha rate) to a vial and raising it with 10 ml in 0.05%×100. Soil is then treated by adding the entire 10 ml to the 400 ml of mix in the bag. The treated soil is immediately mixed well in the sealed bag to distribute the compound evenly. Approximately 95 ml is used to fill each 2-inch square pot up to the top with some soil compression and flattening. For each compound and for the control treatments 4 pots are filled. All pots are watered until moist but with no run-out through the bottom.
# The PPI test simulates 8, 4 and 2 kg/ha rates incorporated 15 cm deep in the field and is equivalent to the 2, 1 and 0.5 kg/ha drench application rates in the standard 2-inch pot cucumber greenhouse assay.
# [9] = system: caspase-3 in rat hepatoma derived H4IIE cells; assay: Caspase-3 activity (DEVD-AMC) after compound exposure in H4IIE cells; type: cell-based; conditions: concentrations up to 300 μM
# Method: Caspase 3 cleaves the tetrapeptide between D and AMC, thus releasing the fluorogenic […] AMC. Following the test article exposure to cells in 96-well plates, medium was aspirated from plates and PBS added to each well. Plates were stored at −80° C. to lyse cells and store samples until further analysis. On the day of analysis, plates were removed from freezer and thawed. Caspase buffer with fluorescent substrate was added to each well and incubated at room temperature for one hour. AMC release was measured in a spectrofluorometer at an excitation wavelength of 360 nm and an emission wavelength of 460 nm. Values are expressed as relative fluorescent units (RFU).
smiles,measurement,setting,value
"CNC(=O)O/N=C(\SC)C(=O)N(C)C [Oxamyl, oxamyl, reference compound]",gall ratings,"[1]; 1 ppm (oxamyl standard of Table 1A), average of triplicate, scale 0-3",0.67 (1 ppm)
same,1 ppm gall ratings,[1]; Table 1B test a,0.67
same,1 ppm gall ratings,[1]; Table 1B test b,1 (1=6-20%)
same,1 ppm gall ratings,[1]; Table 1B test c,1.33
same,1 ppm gall ratings,[1]; Table 1B test d,1.33
same,1 ppm gall ratings,[1]; Table 1B test e,1 (1=6-20%)
same,1 ppm gall rating,[1]; Table 1C test a,1.33
same,1 ppm gall rating,[1]; Table 1C test b,1 (1=6-20%)
same,1 ppm gall rating,[1]; Table 1C test c,0.67^c
same,1 ppm gall rating,[1]; Table 1D test a,"1.33^a,"
same,1 ppm gall rating,[1]; Table 1D test b,1^b (1=6-20%)
same,RG28 = % root galls at 28 days after treatment,[2]; 2 kg ai/ha drench,45.0%
same,RG43 = % root galls at 43 days after treatment,[2]; 2 kg ai/ha drench,42.3%
same,RG28 = % root galls at 28 days after treatment,[2]; 5 kg ai/ha drench,10.5%
same,RG43 = % root galls at 43 days after treatment,[2]; 5 kg ai/ha drench,17.3%
same,0-3 vigor 16 DAP,[3],2.7
same,0-3 vigor 21 DAP,[3],2.5
same,feeder root (3 = ave) 31 DAP,[3],3.0
same,gall % 31 DAP,[3],85%
same,root wgt (g) 31 DAP,[3],37.0 g
same,top wgt (lbs) 31 DAP,[3],1.16 lbs
same,total fruit (lbs),[3],1.09 lbs
same,percent cyst reduction relative to control blank treatment,"[4]; 0.375 mg al/gram seed, test b",−4^b percent
same,percent cyst reduction relative to control blank treatment,"[4]; 1.5 mg al/gram seed, test b",71^b percent
same,oral LD50 in mice,[5],2.3 mg/kg
CS/C(C)=N\OC(=O)N(C)SN(C)C(=O)O/N=C(\C)SC [Thiodicarb],percent cyst reduction relative to control blank treatment,"[4]; 0.375 mg al/gram seed, test a",6^a percent
same,percent cyst reduction relative to control blank treatment,"[4]; 1.5 mg al/gram seed, test a",−23^a percent
CNC(=O)O/N=C/C(C)(C)SC [aldicarb],oral LD50 in mice,[5],0.3 mg/kg
c1ccc(-c2cnc(-c3cccs3)o2)cc1 [compound 4417],8 ppm gall ratings,"[1]; 8 ppm, average of triplicate gall rating, scale 0-3 (% root mass galled)",0.33
same,Number of nematodes recovered from treated soil after 3 days incubation with the compound,[6]; 2 kg/ha,24
same,Number of nematodes recovered from treated soil after 3 days incubation with the compound,[6]; 4 kg/ha,13
same,Number of nematodes recovered from treated soil after 3 days incubation with the compound,[6]; 10 kg/ha,7
same,"mortality, signs of gross toxicity and behavioral changes",[7],One animal died within four days
same,RG28 = % root galls at 28 days after treatment,[2]; 2 kg ai/ha drench,25.5%
same,RG43 = % root galls at 43 days after treatment,[2]; 2 kg ai/ha drench,38.2%
same,root weights (in words),"[2]; 2 kg/ha, 28 DAT",not affected
same,top weights (in words),"[2]; 2 kg/ha, 28 DAT",reduction in top weights
same,Leaf diameter of the first true leaves,"[2]; 2 kg/ha, five days after treatment (5 DAT)",slight reduction
same,phytotoxicity on squash seedlings,"[2]; 2 kg/ha, two days after treatment",slight phytotoxicity
Fc1cc(Cl)ccc1-c1cnc(-c2cccs2)o1 [compound 5915],1 ppm gall ratings,[1]; Table 1B test e,0.33^e
same,pest or weed control at 4000 g/ha,[8],70%
same,pest or weed control at 8000 g/ha,[8],99%
same,induction of caspase-3 (apoptosis marker),[9],no induction of caspase-3
Cc1cc(Cl)ccc1-c1nsc(-c2ccco2)n1 [compound 5938],1 ppm gall ratings,[1]; Table 1B test e,0.67^e
same,pest or weed control at 4000 g/ha,[8],90%
same,pest or weed control at 8000 g/ha,[8],100%
same,0-3 vigor 16 DAP,[3],2.5
same,0-3 vigor 21 DAP,[3],2.7
same,feeder root (3 = ave) 31 DAP,[3],2.7
same,gall % 31 DAP,[3],9%
same,root wgt (g) 31 DAP,[3],24.1 g
same,top wgt (lbs) 31 DAP,[3],1.60 lbs
same,total fruit (lbs),[3],1.22 lbs
same,control of M. incognita (in words),[3]; PPI application at 4 kg/ha,excellent control
same,induction of caspase-3 (apoptosis marker),[9],no induction of caspase-3
